This note sets out measurements from patent US5959113A, “Imidazol derivatives” (Hoffmann-La Roche Inc., priority 1994, dated 1999).

In one experiment the test system is mouse hair follicles. The experiment in a line: Stimulation of cell proliferation in cultured mouse hair follicles. It is filed as cell-based. The procedure: Stimulation of cell proliferation in cultured mouse hair follicles
Mouse hair follicles are isolated and cultured according to the method described by Buhl et al., J. Invest. Dermatol. 92, 315 (1989). Whisker parts are removed from CD-1 mice aged 4 days and the hair follicles are carefully separated from surrounding tissue under the microscope. Hair follicles are cultured in M199 medium which contains 20% FBS and the cell proliferation is determined from the incorporation of [^3 H]-thymidinein DNA. The test compounds are dissolved in DMSO and added in serial dilutions in the range of 1×10^-8 to 1×10^-6 M at the beginning of the cultivation. After 1 day 5 μCi/ml of [^3 H]-thymidine are added to the culture medium and the follicles are incubated for a further 3 days. The hair follicles are then washed with phosphate-buffered saline solution in order to remove non-incorporated radioactivity and the DNA is solubilized by incubation with alkali overnight. The radioactivity incorporated into the follicular DNA is then measured using a liquid scintillation counter.

The target in the next experiment is T1, p56^Ick tyrosine kinase (Homo sapiens, UniProt P06239).
T1 construct: made in house; host or cells: E. coli
The experiment in a line: Inhibition of p56^Ick tyrosine kinase. It is filed as biochemical. The following applies: human recombinant p56lck, 30 °C, 30 min, ATP 10 μM, RR-src peptide 0.75 mM; read-out: IC50 Isolated enzyme p56^lck. The procedure: Inhibition of p56^Ick tyrosine kinase
The activity of p56^Ick tyrosine kinase is determined by measuring the transfer of ^32 P-labelled phosphate from ^32 P-γ-ATP (10 μM) to the substrate RR-src peptide (0.75 mM). Human recombinant p56^Ick (expressed in E. coli) is used as the enzyme.
It is purified from the soluble fraction by means of a monoclonal antibody column and stored at -75° C. The compounds are tested in 10% DMSO in a concentration of 0.001-100 μM, The incubation is carried out at 30° C. for a period of 30 minutes in HEPES buffer (50 mM, pH 6.9) which contains manganese chloride (11 mM) and 0.5% BSA. The test is started by adding the enzyme and terminated by adding ice-cold KH2 PO4 (1M, pH 3.0). After centrifugation the radiolabelled peptide is separated from excess ATP in the supernatant by reversed phase HPLC. The peptide fraction is collected and the radioactivity is determined in a standard β- counter or on-line with a radiometer (Berthold). The inhibitory activity of the test compound is expressed as the micromolar concentration which is required for 50% inhibition (IC50 [μM]).
(§1) The inhibition of selected protein kinases in vitro and the inhibition of cell proliferation in HaCaT-cells by these compounds are set forth in the following Table.

The target in experiment [1] is T2, EGF-receptor tyrosine kinase (Homo sapiens, UniProt P00533).
T2 construct: A membrane fraction from human A431 cells is used as the enzyme; endogenous in cells; host or cells: A431 cells, membrane fraction (Thom et al., Biochem. J. 168, 187 (1977))
As to the kind of experiment: Inhibition of EGF-receptor Tyrosine Kinase. It is filed as biochemical. As to conditions: EGF-R from A431 cell membranes, 30 °C, 30 min, ATP 10 μM, RR-src peptide 0.75 mM; read-out: IC50 Isolated enzyme EGF-R. The procedure:
Inhibition of EGF-receptor Tyrosine Kinase
The activity of EGF-receptor tyrosine kinase is determined by measuring the transfer of ^32 P-labelled phosphate from ^32 P-γ-ATP (10 μM) to the substrate RR-scr peptide* (0.75 mM). A membrane fraction from human A431 cells is used as the enzyme. It is isolated according to Thom et al., Biochem. J. 168, 187 (1977) and stored at -75° C. (4-6 mg protein/ml). The compounds are tested in 10% DMSO in a concentration of 0.001-100 μM. The incubation is carried out at 30° C. for a period of 30 minutes in Tris buffer (25 mM, pH 7.4) which contains magnesium acetate (30 mM), sodium vanadate (0.5 mM), 0.5% BSA and 0.05% Triton X-100. The membranes are pre-incubated with 2 μM of EGF at 4° C. for 90 minutes. The test is started by adding the enzyme (2 μg of membrane protein) and terminated by adding ice-cold KH2 PO4 (1M, pH 3.0). After centrifugation the labelled peptide is separated from excess ATP in the supernatant by reversed phase HPLC. The peptide fraction is collected and the radioactivity is measured in a standard β-counter or on-line with a radiometer (Berthold). The inibitory activity of the test compound is expressed as the mikromolar concentration which is required for 50% inhibition (IC50 [μM]).
*RR-src peptide=[Arg-Arg-Leu-Ile-Glu-Asp-Ala-Glu-Tyr-Ala-Ala-Arg-Gly]
as §1

The target in the next experiment is protein kinase C (PKC). As to the kind of experiment: Inhibition of protein kinase C (PKC). It is filed as biochemical. The following applies: partially purified PKC from hog brain, histone H1, ATP 10 μM, 2 min at 32 °C; read-out: IC50 Isolated enzyme PCK. The procedure: Inhibition of protein kinase C (PKC)
The activity of PKC is measured by measuring the transfer of ^32 P-labelled phosphate from ^32 P-γ-ATP (10 μM) to the substrate histone H1 (200 μg/ml) using partially purified PKC from hog brain (DEAE chromatography according to U. Kikkawa et al., Methods Enzymol. 99, 288, 1983). PKC is activated by phospholipid vesicle prepared by sonicating a mixture of 0.05 ml of phosphatidylserine (10 mg/ml) and 0.005 ml of diolein (10 mg/ml) in 5 ml of Tris HCl buffer (20 mM, pH 7.4). The compounds are tested in DMSO/buffer at a concentration of 0.001-100 μM. The test is started by adding the enzyme, takes 2 minutes at 32° C. and is terminated by adding 20% trichloroacetic acid (containing 1% SDS and 1% sodium pyrophosphate). The precipitated protein with the labelled histone is separated from excess ATP by filtration over a nitrocellulose membrane filter. The radioactivity on the filter is measured in a scintillation counter. The inhibitory activity of the test compound is expressed as the micromolar concentration which is required for 50% inhibition (IC50 [μM]).
as §1

Experiment [2] has as its target cAMP-dependent protein kinase (PKA). The experiment in a line: Inhibition of cAMP-dependent protein kinase (PKA). It is filed as biochemical. The following applies: partially purified PKA from hog brain, histone H1, ATP 10 μM, 2 min at 32 °C; read-out: IC50 Isolated enzyme PKA. The procedure:
Inhibition of cAMP-dependent protein kinase (PKA)
The activity of PKA is measured by measuring the transfer of ^32 P-labelled phosphate from ^32 P-γ-ATP (10 μM) to the substrate histone H1 (333 μg/ml) using partially purified PKA from hog brain (DEAE chromatography according to U. Kikkawa et al., Methods Enzymol. 99, 288, 1983). PKA is activated by 2 μM of cAMP in Tris HCl buffer (20 mM, pH 7.4). The compounds are tested in DMSO/buffer at a concentration of 0.001-100 μM. The test is started by adding the enzyme, takes 2 minutes at 32° C. and is terminated by adding 20% trichloroacetic acid (containing 1% SDS and 1% sodium pyrophosphate). The precipitated protein, which contains the radiolabelled histone, is separated from excess ATP by filtration through a nitrocellulose membrane filter. The radioactivity on the filter is determined in a scintillation counter. The inhibitory activity of the test compounds is expressed as the micromolar concentration which is required for 50% inhibition (IC50 [μM]).
as §1

In the next experiment the test system is HaCaT cells. As to the kind of experiment: Inhibition of HaCaT cell proliferation. It counts as cell-based. As to conditions: Homo sapiens, [3H]-thymidine incorporation, 48 h at 37 °C. The procedure:
Inhibition of HaCaT cell proliferation
HaCaT is a spontaneous immortalized human keratinoycte cell line (Boukamp et al. 1988) which has been used many times as a model system for hyperproliferative keratinoyctes. The incorporation of [^3 H]-thymidine was used to quantify the growing cells in the S phase of the cell cycle. The cells were cultivated with a 3:1 mixture of DMEM/F12 medium which had been supplemented with 5% FCS, EGF (10 μg/l), hydrocortisone (400 μg/l), cholera toxin (8.5 μg/l), insulin (5 μg/l), L-glutamine (2 mM) and penicillin/streptomycin. 200 μl of medium were placed in microtitre plates such that each sample contained 5000 cells. The test compounds were added in serial dilutions in the range of 1×10^-8 M to […] at the beginning of the cultivation. The cells were incubated at 37° C. for 48 hours. For the last 6 hours [^3 H]-thymidine was added ([…]). After digesting the cells with trypsin the amount of incorporated radioactivity was quantified with a liquid scintillation counter.
as §1

Molecules are shown by their SMILES.

T2 sequence (P00533 25-1210): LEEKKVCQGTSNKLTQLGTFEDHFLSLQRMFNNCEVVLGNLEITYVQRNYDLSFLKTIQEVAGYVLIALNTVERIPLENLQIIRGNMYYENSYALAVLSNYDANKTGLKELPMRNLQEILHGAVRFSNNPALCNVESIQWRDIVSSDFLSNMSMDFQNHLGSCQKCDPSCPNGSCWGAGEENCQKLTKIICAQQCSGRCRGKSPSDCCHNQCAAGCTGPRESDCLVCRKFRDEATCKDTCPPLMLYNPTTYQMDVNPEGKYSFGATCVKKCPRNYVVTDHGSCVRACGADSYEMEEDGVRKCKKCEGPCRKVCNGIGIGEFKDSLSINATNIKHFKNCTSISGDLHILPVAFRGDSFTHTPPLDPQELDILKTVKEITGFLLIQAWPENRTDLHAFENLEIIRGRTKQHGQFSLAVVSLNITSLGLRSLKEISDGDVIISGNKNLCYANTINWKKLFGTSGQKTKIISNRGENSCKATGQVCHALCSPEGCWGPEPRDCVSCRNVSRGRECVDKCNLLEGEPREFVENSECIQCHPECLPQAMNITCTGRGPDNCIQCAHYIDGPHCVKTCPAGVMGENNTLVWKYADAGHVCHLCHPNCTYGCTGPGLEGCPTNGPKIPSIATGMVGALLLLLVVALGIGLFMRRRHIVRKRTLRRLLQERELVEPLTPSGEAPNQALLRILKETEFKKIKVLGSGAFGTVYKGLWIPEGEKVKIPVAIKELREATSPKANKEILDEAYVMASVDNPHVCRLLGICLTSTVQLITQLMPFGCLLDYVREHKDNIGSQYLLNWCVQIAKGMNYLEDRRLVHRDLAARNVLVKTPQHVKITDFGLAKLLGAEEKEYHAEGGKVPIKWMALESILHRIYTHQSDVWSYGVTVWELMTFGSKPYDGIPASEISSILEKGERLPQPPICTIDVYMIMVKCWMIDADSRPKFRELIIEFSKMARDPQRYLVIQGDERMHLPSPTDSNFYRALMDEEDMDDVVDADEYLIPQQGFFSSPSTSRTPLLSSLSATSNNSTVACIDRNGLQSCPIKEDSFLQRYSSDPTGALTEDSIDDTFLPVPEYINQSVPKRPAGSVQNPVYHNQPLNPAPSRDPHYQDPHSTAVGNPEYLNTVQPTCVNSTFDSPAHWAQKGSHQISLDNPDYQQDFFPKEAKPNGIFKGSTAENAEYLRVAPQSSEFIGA
T1 sequence (P06239 whole entry): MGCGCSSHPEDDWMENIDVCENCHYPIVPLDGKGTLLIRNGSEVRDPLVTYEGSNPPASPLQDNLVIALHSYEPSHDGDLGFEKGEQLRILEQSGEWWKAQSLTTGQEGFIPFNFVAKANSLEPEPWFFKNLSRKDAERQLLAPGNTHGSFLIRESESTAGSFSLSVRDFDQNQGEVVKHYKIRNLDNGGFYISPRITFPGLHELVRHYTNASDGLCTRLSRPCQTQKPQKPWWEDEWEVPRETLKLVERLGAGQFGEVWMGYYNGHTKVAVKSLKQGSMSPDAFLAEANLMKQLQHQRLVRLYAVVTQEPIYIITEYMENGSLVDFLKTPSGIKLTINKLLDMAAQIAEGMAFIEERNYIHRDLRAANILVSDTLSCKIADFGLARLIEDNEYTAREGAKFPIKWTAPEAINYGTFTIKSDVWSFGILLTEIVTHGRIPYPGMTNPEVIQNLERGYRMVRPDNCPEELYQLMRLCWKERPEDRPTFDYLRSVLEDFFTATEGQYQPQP

With `Cc1cc(C)c(-c2nc(-c3ccncc3)c(-c3ccc(Cl)cc3)[nH]2)c(C)c1` [Example 1, 4-[5-(4-chlorophenyl)-2-(2,4,6-trimethyphenyl)imidazol-4-yl]pyridine], the activity at 0.3 µM in the experiment on mouse hair follicles (96 h, at 0.3 μM, [3H]-thymidine incorporation, CD-1 mouse whisker follicles, read-out: maximum DNA synthesis value (compared with controls)) came out at 211 ± 17%. In addition, the EC50 with mouse hair follicles ([3H]-thymidine incorporation, CD-1 mouse whisker follicles, read-out: concentration which resulted in a half-maximum stimulation of the DNA synthesis (EC50 value)) was determined as 0.1 µM. For the same compound, in the experiment on mouse hair follicles (mouse hair follicle culture), the “activity in this culture system compared with known hypotrichotic agents” value is given as “exceeded that of known hypotrichotic agents”. In addition, the IC50 on p56^Ick tyrosine kinase is 2.2 µM; in experiment [1], 0.34 µM; on protein kinase C (PKC), > 100 µM; in experiment [2], 6.3 µM; in the experiment with HaCaT cells it was 2 µM.
